The assay has as its system TGF-β1-induced SMAD signaling pathway. The assay can be described thus: RD SMAD reporter (RDSR) assay. The format is cell-based. To be noted: Homo sapiens; 200 pg/ml rhTGF-beta1, 24 h. The text has this: TGF-beta (also referred to as TGF-β1) is a multifunctional, highly conserved cytokine with many key functions in development, cell growth and apoptosis, and plays a key role in the tissue repair response and functions as a potent immune modulator. TGF-β signaling is triggered when the activated TGF-β homodimer binds to the TGF-β receptor 2, which in turn leads to the recruitment and phosphorylation of TGF-β receptor 1 (ALK5). Activated TGF-β receptor 1 phosphorylates the signal transduction molecules SMAD2 and SMAD3. These bind to common mediator SMAD4 and translocate to the nucleus where they bind to short conserved DNA sequences called the SMAD binding element and induce the transcription of various target genes.
A stable cellular reporter, the RD SMAD reporter (RDSR), was generated to test the ability of certain compounds disclosed herein to inhibit the canonical TGF-β1-induced SMAD signaling pathway in a cellular context. The RD SMAD reporter (RDSR) cell line was generated by stably integrating the SMAD cellular reporter plasmid (Promega, pGL4.48[luc2P/SBE/Hygro]) into the human rhabdomyosarcoma cell line RD (ATCC, CCL-136). Once SMAD signaling was triggered with, for example, the addition of TGF-beta1, receptor-activated SMADs bind the SMAD binding elements (SBEs) leading to the expression of intracellular luciferase.
The rhabdomyosarcoma line RD (ATCC, CCL-136) was transfected with a SMAD reporter vector (Promega, E3671) and a polyclonal stable cell line was selected using hygromycin B. The transfected vector contained three copies of a Smad-binding element (SBE) that drives transcription of the luciferase reporter gene luc2P (Photinus pyralis). luc2P is a synthetically-derived luciferase sequence with humanized codon optimization that is designed for high expression and reduced anomalous transcription. The luc2P gene contains hPEST, a protein destabilization sequence, which allows luc2P protein levels to respond more quickly than those of luc2 to induction of transcription. The intracellular luciferase is quantified by the addition of equal volume (100 μl) of ONE-GLO substrate (Promega, E6120) and read within ten minutes on the Envision plate reader. The stable RDSR cell line was tested by evaluating the response to human TGF-beta1 (R&D Systems, 7754-BH-005) as well as myostatin (R&D Systems, 788-G8-010/CF) in a concentration-dependent manner after twenty-four hours of stimulation. […] For compound evaluation, the tool compounds (vactosertib and PF-06952229 (a TGFβR1 inhibitor available from MedChem Express HY-136244) were included as positive controls) or test compounds were incubated with cells for one hour at 37° C. then stimulated with 200 pg/ml rhTGF-beta1 for twenty-four hours. The activity of the reporter was determined with the addition of ONE-GLO (Promega) substrate, and luminescence counts were collected on the Envision plate reader (Perkin Elmer). The IC50 or EC50 was calculated using nonlinear regression curve fitting with graph pad prism software.
A comparative RDSR analysis was performed using IC50 values for selected compounds and standards obtained using the RDSR assay protocol described in Example 3.
The tool compounds vactosertib (an ALK5 inhibitor sourced from MedChem Express, HY-19928) and PF-06952229 (a TGFβR1 inhibitor) were included in the study as comparator compounds. Selected example compounds or comparator compounds were incubated with cells for one hour at 37° C. then stimulated with 200 pg/ml rhTGF-beta1 for twenty-four hours. The activity of the reporter was determined by adding ONE-GLO (Promega) substrate, and collecting luminescence counts on the Envision plate reader (Perkin Elmer).
Each of the example compounds and comparator compounds were tested at drug concentrations of from 20 micromolar to 1 nanomolar, and the IC50 value for each was calculated using Graph Pad Prism software. DMSO was used as a negative control and all wells contained normalized DMSO concentrations. […]

Among the data in US20240197729A1, “ALK-5 Inhibitors and Uses Thereof” (Sumitomo Pharma Oncology, Inc., priority 2021, published 2024) are EC50 values, retold here.

SMILES strings stand for the structures.

As a reminder, the EC50 is the concentration that produces a half-maximal response.

For `Cc1nn(CC(F)(F)F)cc1Nc1cc(Nc2cnnc3c(C)cccc23)ccn1` [Compound 01, N2-[3-methyl-1-(2,2,2-trifluoroethyl)-1H-pyrazol-4-yl]-N4-(8-methylcinnolin-4-yl)pyridine-2,4-diamine], the half-maximal effective concentration (EC50) is < 50 nM. For the molecule `Cc1cccc2c(Nc3ccnc(Nc4ccc(N5CCOCC5)cc4)c3)cnnc12` [Compound 05, N4-(8-methylcinnolin-4-yl)-N2-[4-(morpholin-4-yl)phenyl]pyridine-2,4-diamine], the half-maximal effective concentration (EC50) is < 50 nM. Consider `Clc1cccc2c(Nc3ccnc(Nc4cccc(N5CCOCC5)c4)c3)cnnc12` [Compound 04, N4-(8-chlorocinnolin-4-yl)-N2-[3-(morpholin-4-yl)phenyl]pyridine-2,4-diamine], for which the EC50 was < 50 nM.
